Laboratory results reported in publication PMC4890880 (ACS infectious diseases, 2016).
Where a name gives a salt, the structure may show the parent alone.

test system: P. falciparum 3D7 parasites; test: Asexual erythrocytic-stage SYBR Green I proliferation assay, 1536-well; type: cell-based, Plasmodium falciparum; conditions: read-out: P. falciparum (blood) IC50; Table S1, validation set of 50 antimalarials

Structure (SMILES)	IC50 [µM]
CCN(CC)CCCNc1ccnc2cc(Cl)ccc12 [AQ-13, reference compound]	0.0087
CC(C)NC(=N)NC(=N)Nc1ccc(Cl)c(Cl)c1 [Chlorproguanil HCL, reference compound]	4.72
C[C@]12CC[C@H](OS(=O)(=O)O)CC1=CC[C@@H]1[C@@H]2CC[C@]2(C)C(=O)CC[C@@H]12 [Dehydroepiandrosterone sulphate, reference compound]	> 62.5

test system: Plasmodium berghei (Pb-Luc) exoerythrocytic-stage parasites; test: not given; conditions: read-out: P. berghei (liver) IC50; Table S1, validation set of 50 antimalarials; Pb-Luc

Structure (SMILES)	IC50 [µM]
CCN(CC)CCCNc1ccnc2cc(Cl)ccc12 [AQ-13, reference compound]	3.16
CC(C)NC(=N)NC(=N)Nc1ccc(Cl)c(Cl)c1 [Chlorproguanil HCL, reference compound]	0.5
C[C@]12CC[C@H](OS(=O)(=O)O)CC1=CC[C@@H]1[C@@H]2CC[C@]2(C)C(=O)CC[C@@H]12 [Dehydroepiandrosterone sulphate, reference compound]	> 12.5

test system: HepG2-A16-CD81EGFP cells; test: not given; conditions: HepG2, 50 uM, replicate 1

Structure (SMILES)	HepG2 Tox% @ 50 uM rep1 [%]
CCCc1cc(O)c2c3c(c(=O)oc2c1)CN(C)CC3 [MMV665841]	11

same assay, conditions: HepG2, 50 uM, replicate 2

Structure (SMILES)	HepG2 Tox% @ 50 uM rep2 [%]
CCCc1cc(O)c2c3c(c(=O)oc2c1)CN(C)CC3 [MMV665841]	26

same assay, conditions: human, 50 uM

Structure (SMILES)	HepG2 Tox% @ 50 uM rep2 [%]	HepG2 Tox% @ 50 uM rep1 [%]
CN(C)CCCNc1c2ccccc2nc2ccccc12 [MMV000448]	100	–
CCCN(CCC)CCCNC(=O)c1cc2c(-c3ccc(OC)c(OC)c3)nn(C)c2s1 [MMV000561]	100	–
CCCN(CCC)CC(O)COc1ccccc1C(=O)Nc1ccccc1 (stereo not drawn) [MMV006455]	–	-8
Cc1cc(N2CCN(C3CCCC3)CC2)n2c(nc3ccccc32)c1C#N [MMV006706]	-11	-10

test system: HepG2-A16-CD81EGFP cells; test: cells; conditions: Homo sapiens, HepG2, read-out: % inhibition

Structure (SMILES)	inhibition at 50 µM [%]
CN(C)CCCNc1c2ccccc2nc2ccccc12 [MMV000448]	99.5
CCCN(CCC)CCCNC(=O)c1cc2c(-c3ccc(OC)c(OC)c3)nn(C)c2s1 [MMV000561]	100
CCCN(CCC)CC(O)COc1ccccc1C(=O)Nc1ccccc1 (stereo not drawn) [MMV006455]	7.57
Cc1cc(N2CCN(C3CCCC3)CC2)n2c(nc3ccccc32)c1C#N [MMV006706]	-11.2
CCCc1cc(O)c2c3c(c(=O)oc2c1)CN(C)CC3 [MMV665841]	26.3

test system: Plasmodium berghei (Pb-Luc) exoerythrocytic-stage parasites; test: microbe, parasite or virus in culture; conditions: read-out: Inhibition% @ 50 uM rep1

Structure (SMILES)	inhibition at 50 µM [%]
CN(C)CCCNc1c2ccccc2nc2ccccc12 [MMV000448]	103
CCCN(CCC)CCCNC(=O)c1cc2c(-c3ccc(OC)c(OC)c3)nn(C)c2s1 [MMV000561]	104
CCCN(CCC)CC(O)COc1ccccc1C(=O)Nc1ccccc1 (stereo not drawn) [MMV006455]	84
Cc1cc(N2CCN(C3CCCC3)CC2)n2c(nc3ccccc32)c1C#N [MMV006706]	48
CCCc1cc(O)c2c3c(c(=O)oc2c1)CN(C)CC3 [MMV665841]	83

same assay, conditions: read-out: Inhibition% @ 50 uM rep2

Structure (SMILES)	inhibition at 50 µM [%]
CN(C)CCCNc1c2ccccc2nc2ccccc12 [MMV000448]	106
CCCN(CCC)CCCNC(=O)c1cc2c(-c3ccc(OC)c(OC)c3)nn(C)c2s1 [MMV000561]	106
CCCN(CCC)CC(O)COc1ccccc1C(=O)Nc1ccccc1 (stereo not drawn) [MMV006455]	75
Cc1cc(N2CCN(C3CCCC3)CC2)n2c(nc3ccccc32)c1C#N [MMV006706]	24
CCCc1cc(O)c2c3c(c(=O)oc2c1)CN(C)CC3 [MMV665841]	44

test system: HepG2-A16-CD81EGFP cells; test: cells; conditions: Homo sapiens, HepG2, read-out: % inhibition; remark: another data set of the same source

Structure (SMILES)	inhibition at 50 µM [%]
CN(C)CCCNc1c2ccccc2nc2ccccc12 [MMV000448]	96.8
CCCN(CCC)CCCNC(=O)c1cc2c(-c3ccc(OC)c(OC)c3)nn(C)c2s1 [MMV000561]	98.1
CCCN(CCC)CC(O)COc1ccccc1C(=O)Nc1ccccc1 (stereo not drawn) [MMV006455]	-8.15
Cc1cc(N2CCN(C3CCCC3)CC2)n2c(nc3ccccc32)c1C#N [MMV006706]	-9.81
CCCc1cc(O)c2c3c(c(=O)oc2c1)CN(C)CC3 [MMV665841]	10.6
